Structures can show the parent of a compound that is named as a salt.
Biological target: T1, full length SGK1 (Homo sapiens, UniProt O00141)
T1 construct: 125 μM full length SGK1 (Life Technologies Part #PR7358A); purchased Life Technologies PR7358A
T1 sequence (O00141 1-431): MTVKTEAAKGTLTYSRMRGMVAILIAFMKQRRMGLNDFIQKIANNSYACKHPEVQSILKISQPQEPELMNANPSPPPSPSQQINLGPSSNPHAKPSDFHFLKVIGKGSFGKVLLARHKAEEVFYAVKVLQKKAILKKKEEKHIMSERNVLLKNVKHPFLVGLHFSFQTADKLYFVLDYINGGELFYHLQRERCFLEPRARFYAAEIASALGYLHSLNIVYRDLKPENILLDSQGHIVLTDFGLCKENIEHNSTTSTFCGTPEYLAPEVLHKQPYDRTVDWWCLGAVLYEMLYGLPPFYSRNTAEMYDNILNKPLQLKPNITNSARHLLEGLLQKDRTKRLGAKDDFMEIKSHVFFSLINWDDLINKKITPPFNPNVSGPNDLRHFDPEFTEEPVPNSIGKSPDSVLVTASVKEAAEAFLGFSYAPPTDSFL
Test: SGK1 inhibition Assay A (Caliper LabChip electrophoretic separation of fluorescent peptide substrate and phosphorylated product)
Type: biochemical
Conditions: Assay A; 20 μM ATP, 40 min incubation; read-out: SGK1 IC50

Structure (SMILES)	IC50 [nM]
CC(=O)N1CC=C(c2cc(N3CCC[C@@H](NC(=O)c4cccc(N5CC[C@H](O)C5)n4)C3)c3c(N)ncnn23)C1 [Example 779, N-((R)-1-(7-(1-acetyl-2,5-dihydro-1H-pyrrol-3-yl)-4-aminopyrrolo[2,1-f][1,2,4]triazin-5-yl)piperidin-3-yl)-6-((S)-3-hydroxypyrrolidin-1-yl)picolinamide]	33
CC(=O)N1CC=C(c2cc(N3CCC[C@@H](NC(=O)c4cc(C)cc(N5CCN(C)CC5)n4)C3)c3c(N)ncnn23)C1 [Example 732, (R)-N-(1-(7-(1-acetyl-2,5-dihydro-1H-pyrrol-3-yl)-4-aminopyrrolo[2,1-f][1,2,4]triazin-5-yl)piperidin-3-yl)-4-methyl-6-(4-methylpiperazin-1-yl)picolinamide]	25
CC1CC1C(=O)N1CC=C(c2cc(N3CCC[C@@H](NC(=O)c4sc(Cl)cc4OCCN4CCOCC4)C3)c3c(N)ncnn23)C1 (stereo partly drawn) [Example 266, N-((3R)-1-(4-amino-7-(1-(2-methylcyclopropane-1-carbonyl)-2,5-dihydro-1H-pyrrol-3-yl)pyrrolo[2,1-f][1,2,4]triazin-5-yl)piperidin-3-yl)-5-chloro-3-(2-morpholinoethoxy)thiopbene-2-carboxamide]	18
Cc1cnc(F)cc1-c1cc(N2CCC[C@@H](NC(=O)c3ccc(Cl)s3)C2)c2c(N)ncnn12 [Example 233]	33
CC(C)(C)OC(=O)N1CC=C(c2ccc(C(=O)N[C@@H]3CCCN(c4cc(-c5ccnc(C(F)F)c5)n5ncnc(N)c45)C3)s2)C1 [Example 546, tert-butyl (R)-3-(5-((1-(4-amino-7-(2-(difluoromethyl)pyridin-4-yl)pyrrolo[2,1-f][1,2,4]triazin-5-yl)piperidin-3-yl)carbamoyl)thiophen-2-yl)-2,5-dihydro-1H-pyrrole-1-carboxylate]	29
CC(=O)N1CC=C(c2cc(N3CCC[C@@H](NC(=O)c4snnc4C)C3)c3c(N)ncnn23)C1 [Example 473, (R)-N-(1-(7-(1-acetyl-2,5-dihydro-1H-pyrrol-3-yl)-4-aminopyrrolo[2,1-f][1,2,4]triazin-5-yl)piperidin-3-yl)-4-methyl-1,2,3-thiadiazole-5-carboxamide]	107
CN1CCC(c2cc(C(F)F)sc2C(=O)N[C@@H]2CCCN(c3cc(-c4ccc(C(N)=O)nc4)n4ncnc(N)c34)C2)C1 (stereo partly drawn) [Example 402, 5-(4-amino-5-((3R)-3-(5-(difluoromethyl)-3-(1-methylpyrrolidin-3-yl)thiophene-2-carboxamido)piperidin-1-yl)pyrrolo[2,1-f][1,2,4]triazin-7-yl)picolinamide]	219
CC(=O)N1CC=C(c2cc(N3CCC[C@@H](NC(=O)c4sc(C(F)F)cc4C4CCN(C)C4)C3)c3c(N)ncnn23)C1 (stereo partly drawn) [Example 398, N—((R)-1-(7-(1-acetyl-2,5-dihydro-1H-pyrrol-3-yl)-4-aminopyrrolo[2,1-f][1,2,4]triazin-5-yl)piperidin-3-yl)-5-(difluoromethyl)-3-(1-methylpyrrolidin-3-yl)thiophene-2-carboxamide]	246
COC(=O)N1CC=C(c2cc(N3CCC[C@@H](NC(=O)c4sc(Cl)cc4OC4CCNC(C)C4)C3)c3c(N)ncnn23)C1 (stereo partly drawn) [Example 624, Methyl 3-(4-amino-5-((3R)-3-(5-chloro-3-((2-methylpiperidin-4-yl)oxy)thiophene-2-carboxamido)piperidin-1-yl)pyrrolo[2,1-f][1,2,4]triazin-7-y1)-2,5-dihydro-1H-pyrrole-1-carboxylate]	7
CC(=O)N1CC=C(c2cc(N3CCC[C@@H](NC(=O)c4ccncn4)C3)c3c(N)ncnn23)C1 [Example 740, (R)-N-(1-(7-(1-acetyl-2,5-dihydro-1H-pyrrol-3-yl)-4-aminopyrrolo[2,1-f][1,2,4]triazin-5-yl)piperidin-3-yl)pyrimidine-4-carboxamide]	241
CN(C)CCOc1cc(Cl)sc1C(=O)N[C@@H]1CCCN(c2cc(-c3cnn(C4CCOC4)c3)n3ncnc(N)c23)C1 (stereo partly drawn) [Example 275, N-((3R)-1-(4-amino-7-(1-(tetrahydrofuran-3-yl)-1H-pyrazol-4-yl)pyrrolo[2,1-f][1,2,4]triazin-5-yl)piperidin-3-yl)-5-chloro-3-(2-(dimethylamino)ethoxy)thiophene-2-carboxamide]	919
CS(=O)(=O)c1ccc(-c2cc(N3CCC[C@@H](NC(=O)c4cnns4)C3)c3c(N)ncnn23)cc1 [Example 70, (R)-N-(1-(4-amino-7-(4-(methylsulfonyl)phenyl)pyrrolo[2,1-f][1,2,4]triazin-5-yl)piperidin-3-yl)-1,2,3-thiadiazole-5-carboxamide]	21
CS(=O)(=O)c1ccc(-c2cc(N3CCC[C@@H](NC(=O)c4ccn5ccnc5c4)C3)c3c(N)ncnn23)cc1 [Example 54]	596
CN1CCC(c2cc(C(F)F)sc2C(=O)N[C@@H]2CCCN(c3cc(-c4ccc(C#N)nc4)n4ncnc(N)c34)C2)C1 (stereo partly drawn) [Example 401, N-((R)-1-(4-amino-7-(6-cyanopyridin-3-yl)pyrrolo [2,1-f][1,2,4]triazin-5-yl)piperidin-3-yl)-5-(difluoromethyl)-3-(1-methylpyrrolidin-3-yl)thiophene-2-carboxamide]	250

Next, values leading:

IC50 [nM]	Structure (SMILES)
8	Nc1ncnn2c(-c3ccnc(C(F)F)c3)cc(N3CCC[C@@H](NC(=O)c4sc(Cl)cc4OC4CNC4)C3)c12 [Example 632, (R)-N-(1-(4-amino-7-(2-(difluoromethyl)pyridin-4-yl)pyrrolo[2,1-f][1,2,4]triazin-5-y1)piperidin-3-y1)-3-(azetidin-3-yloxy)-5-chlorothiophene-2-carboxamide]
10	CC(=O)N1CC=C(c2cc(N3CCC[C@@H](NC(=O)c4cccc(NCCN5CCCC5)n4)C3)c3c(N)ncnn23)C1 [Example 763, (R)-N-(1-(7-(1-acetyl-2,5-dihydro-1H-pyrrol-3-yl)-4-aminopyrrolo[2,1-f][1,2,4]triazin-5-yl)piperidin-3-yl)-6-((2-(pyrrolidin-1-yl)ethyl)amino)picolinamide]
16	CC(=O)N1CC=C(c2cc(N3CCC[C@@H](NC(=O)c4cccc(OC5CCN(C)CC5)n4)C3)c3c(N)ncnn23)C1 [Example 709, (R)-N-(1-(7-(1-acetyl-2,5-dihydro-1H-pyrrol-3-yl)-4-aminopyrrolo[2,1-f][1,2,4]triazin-5-yl)piperidin-3-yl)-6-((1-methylpiperidin-4-yl)oxy)picolinamide]
10	COC(=O)N1CC=C(c2cc(N3CCC[C@@H](NC(=O)c4sc(C(F)F)cc4OC4CCN(C(C)C)CC4)C3)c3c(N)ncnn23)C1 [Example 441, Methyl (R)-3-(4-amino-5-(3-(5-(difluoromethyl)-3-((1-isopropylpiperidin-4-yl)oxy)thiophene-2-carboxamido)piperidin-1-yl)pyrrolo[2,1-f][1,2,4]triazin-7-yl)-2,5-dihydro-1H-pyrrole-1-carboxylate]
6	CC(=O)N1CC=C(c2cc(N3CCC[C@@H](NC(=O)c4sc(Cl)cc4OC4CNC4)C3)c3c(N)ncnn23)C1 [Example 633, (R)-N-(1-(7-(1-acetyl-2,5-dihydro-1H-pyrrol-3-yl)-4-aminopyrrolo[2,1-f][1,2,4]triazin-5-yl)piperidin-3-yl)-3-(azetidin-3-yloxy)-5-chlorothiophene-2-carboxamide]
3	NC(=O)c1ccc(-c2cc(N3CCC[C@@H](NC(=O)c4ccc(Cl)s4)C3)c3c(N)ncnn23)cc1F [Example 139, (R)—N-(1-(4-amino-7-(4-carbamoyl-3-fluorophenyl)pyrrolo[2,1-f][1,2,4]triazin-5-yl)piperidin-3-yl)-5-chlorothiophene-2-carboxamide, TFA]
6	CN(C)CCOc1cc(Cl)sc1C(=O)N[C@@H]1CCCN(c2cc(-c3cccc(C=O)c3)n3ncnc(N)c23)C1 [Example 283, (R)-N-(1-(4-amino-7-(3-formylphenyl)pyrrolo[2,1-f][1,2,4]triazin-5-yl)piperidin-3-yl)-5-chloro-3-(2-(dimethylamino)ethoxy) thiophene-2-carboxamide]
3	N#Cc1ccc(-c2cc(N3CCC[C@@H](NC(=O)c4ccc(C(F)F)s4)C3)c3c(N)ncnn23)cn1 [Example 487, (R)-N-(1-(4-amino-7-(6-cyanopyridin-3-yl)pyrrolo[2,1-f][1,2,4]triazin-5-yl)piperidin-3-yl)-5-(difluoromethyl)thiophenc-2-carboxamide]
7	CC(=O)N1CC=C(c2cc(N3CCC[C@@H](NC(=O)c4cccc(N5CC[C@@H](O)C5)n4)C3)c3c(N)ncnn23)C1 [Example 770, N-((R)-1-(7-(1-acetyl-2,5-dihydro-1H-pyrrol-3-yl)-4-aminopyrrolo[2,1-f][1,2,4]triazin-5-yl)piperidin-3-yl)-6-((R)-3-hydroxypyrrolidin-1-yl)picolinamide]
5	COc1cnccc1-c1cc(N2CCC[C@@H](NC(=O)c3ccc(Cl)s3)C2)c2c(N)ncnn12 [Example 213, (R)-N-(1-(4-amino-7-(3-methoxypyridin-4-yl)pyrrolo[2,1-f][1,2,4]triazin-5-yl)piperidin-3-yl)-5-chlorothiophene-2-carboxamide, TFA]
1	Nc1ncnn2c(-c3ccc(-n4cncn4)nc3)cc(N3CCC[C@@H](NC(=O)c4ccc(Cl)s4)C3)c12 [Example 251, (R)-N-(1-(7-(6-(1H-1,2,4-triazol-1-yl)pyridin-3-yl)-4-aminopyrrolo[2,1-f][1,2,4]triazin-5-yl)piperidin-3-yl)-5-chlorothiophene-2-carboxamide, TFA]
